Source: patent US9834563B2 (Merck Sharp & Dohme Corp., priority 2013, dated 2017)

What was measured:
[1] = molecular target: T1, Human GPR40 (Homo sapiens, UniProt O14842); test: FLIPR assay: agonist-induced calcium mobilization in GPR40/CHO NFAT BLA cells; format: cell-based; parameters: expressed in transfected cells; host or cells: CHO cells stably expressing NFAT BLA (beta-lactamase)
Excerpt: (§1) Human and mouse GPR40 stable cell-lines were generated in CHO cells stably expressing NFAT BLA (Beta-lactamase). A human GPR40 stable cell-line was generated in HEK cells stably expressing the aequorin expressing reporter. The expression plasmids were transfected using lipofectamine, LIFE TECHNOLOGIES (Carlsbad, Calif.), following manufacturer's instructions. Stable cell-lines were generated following drug selection.
FLIPR (Fluorimetric Imaging Plate Reader, Molecular Devices) assays were performed to measure agonist-induced calcium mobilization of the stable clones. For the FLIPR assay, one day before assay, GPR40/CHO NFAT BLA cells were seeded into black-wall-clear-bottom 384-well plates (Costar) at 1.4×10e4 cells/20 μL medium/well. The cells were incubated with 20 μl/well of the assay buffer (HBSS, 0.1% BSA, 20 mM HEPES, 2.5 mM probenecid, pH 7.4) containing 8 μM fluo-4, AM, 0.08% pluronic acid at room temperature for 100 minutes. Fluorescence output was measured using FLIPR. Compounds were dissolved in DMSO and diluted to desired concentrations with assay buffer. 13.3 μL/well of compound solution was added. The activities of the compounds in the examples have EC50 (effective concentration of compound to afford 50% of the maximum observed fluorescence) values listed in Table I.

[2] = molecular target: T1, Human GPR40; test: Inositol phosphate turnover (IP1) assay in HEK cells stably expressing human GPR40; format: cell-based; parameters: expressed in transfected cells; details: HEK cells stably expressing human GPR40, 3H-inositol labeling, 60 min compound incubation
Protocol: as §1
The assay is performed in a 96-well format. HEK cells stably expressing human GPR40 are plated to be 60-80% confluent within 72 h. After 72 h, the plates are aspirated and the cells washed with inositol-free DMEM (ICN). The wash media is replaced with 150 μL of 3H-inositol labeling media (inositol-free media containing 0.4% human albumin or 0.4% mouse albumin, 1× pen/strep antibiotics, glutamine, 25 mM HEPES to which is added 3H-myo-inositol NEN #NET114A 1 mCi/mL, 25 Ci/mmol diluted 1:150 in loading media with a final specific radioactivity of 1 μCi/150 μL). Alternatively, the human and mouse albumin can be added after the overnight labeling step before the addition of LiCl.
The assay is typically run the next day after 18 h labeling. On the day of the assay, 5 μL of 300 mM LiCl is added to all wells and incubated at 37 degrees for 20 min. 0.75 μL of 200× compounds are added and incubated with the cells for 60 min at 37 degrees. The media is then aspirated off and the assay terminated with the addition of 60 μL 10 mM formic acid. The cells are lysed for 60 min at room temperature. 15-30 μL of lysate is mixed with 70 μL/1 mg YSi SPA beads AMERSHAM (United Kingdom) in clear bottom Isoplates. The plates are shaken for 2 h at room temperature. Beads are allowed to settle and the plates are counted in the Wallac MICROBETA instrument. The activities of the compounds in the examples have EC50 (effective concentration of compound to afford 50% of the maximum observed […]) values listed in Table I.

T1 sequence (O14842 whole entry): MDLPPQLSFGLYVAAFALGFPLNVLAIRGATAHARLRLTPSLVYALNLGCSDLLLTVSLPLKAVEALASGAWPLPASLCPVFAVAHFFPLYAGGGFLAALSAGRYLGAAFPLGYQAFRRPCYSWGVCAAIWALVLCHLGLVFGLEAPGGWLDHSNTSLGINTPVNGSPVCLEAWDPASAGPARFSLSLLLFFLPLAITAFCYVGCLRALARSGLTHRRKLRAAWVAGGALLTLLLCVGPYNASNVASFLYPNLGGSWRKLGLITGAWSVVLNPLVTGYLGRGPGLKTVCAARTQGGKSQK

EC50 [1] [nM]	EC50 [2] [nM]	Compound
57.4	22.3	Cc1cc(OCCCS(C)(=O)=O)nc(C)c1-c1ccc(F)c(COc2ccc3c(c2)C[C@H]2[C@H](C(=O)O)[C@@H]32)c1 [Example 6, 4-{2-Fluoro-5-[6-(3-methanesulfonyl-propoxy)-2,4-dimethyl-pyridin-3-yl]-benzyloxy}-1,1a,6,6a-tetrahydro-cyclopropa[a]indene-1-carboxylic acid]
20.6	5	CS(=O)(=O)CCCOc1cc(C(F)(F)F)c(-c2ccc(F)c(COc3ccc4c(c3)C[C@H]3[C@H](C(=O)O)[C@@H]43)c2)cn1 [Example 32, (1S,1aS,6aR)-4-((2-fluoro-5-(6-(3-(methylsulfonyl)propoxy)-4-(trifluoromethyl)pyridin-3-yl)benzyl)oxy)-1,1a,6,6a-tetrahydrocyclopropa[a]indene-1-carboxylic acid]
16.6	14.7	Cc1nc(OCCCC2(O)CC2)ccc1-c1ccc(F)c(COc2ccc3c(c2)C[C@H]2[C@H](C(=O)O)[C@@H]32)c1 [Example 37, (1S,1aS,6aR)-4-((2-fluoro-5-(6-(3-(1-hydroxycyclopropyl)propoxy)-2-methylpyridin-3-yl)benzyl)oxy)-1,1a,6,6a-tetrahydrocyclopropa[a]indene-1-carboxylic acid]
12.8	51	Cc1nc(N2CCC(C(F)(F)F)CC2)ccc1-c1ccc(F)c(COc2ccc3c(c2)C[C@H]2[C@H](C(=O)O)[C@@H]32)c1 [Example 42, (1S,1aS,6aR)-4-((2-fluoro-5-(2-methyl-6-(4-(trifluoromethyl)piperidin-1-yl)pyridin-3-yl)benzyl)oxy)-1,1a,6,6a-tetrahydrocyclopropa[a]indene-1-carboxylic acid]
50.7	236	CS(=O)(=O)CCCOc1ncc(-c2ccc(F)c(COc3ccc4c(c3)C[C@H]3[C@H](C(=O)O)[C@@H]43)c2)cc1C(F)(F)F [Example 54, (1S,1aS,6aR)-4-((2-Fluoro-5-(6-(3-(methylsulfonyl)propoxy)-5-(trifluoromethyl)pyridin-3-yl)benzyl)oxy)-1,1a,6,6a-tetrahydrocyclopropa[a]indene-1-carboxylic acid]
18.5	8	Cc1nc(OCC2CCOCC2)ccc1-c1ccc(F)c(COc2ccc3c(c2)C[C@H]2[C@H](C(=O)O)[C@@H]32)c1 [Example 28, (1S,1aS,6aR)-4-((2-fluoro-5-(2-methyl-6-((tetrahydro-2H-pyran-4-yl)methoxy)pyridin-3-yl)benzyl)oxy)-1,1a,6,6a-tetrahydrocyclopropa[a]indene-1-carboxylic acid]
145	83.5	Cc1cc(NCCCS(C)(=O)=O)ncc1-c1ccc(F)c(COc2ccc3c(c2)C[C@H]2[C@H](C(=O)O)[C@@H]32)c1 [Example 14, 4-{2-Fluoro-5-[6-(3-methanesulfonyl-propylamino)-4-methyl-pyridin-3-yl]-benzyloxy}-1,1a,6,6a-tetrahydro-cyclopropa[a]indene-1-carboxylic acid]
35.4	30	Cc1c(-c2ccc(F)c(COc3ccc4c(c3)C[C@H]3[C@H](C(=O)O)[C@@H]43)c2)ccc2nc(-c3ccncc3)sc12 [Example 52, (1S,1aS,6aR)-4-((2-fluoro-5-(7-methyl-2-(pyridin-4-yl)benzo[d]thiazol-6-yl)benzyl)oxy)-1,1a,6,6a-tetrahydrocyclopropa[a]indene-1-carboxylic acid]
49.2	30	Cc1cc(OCCC2(O)COC2)ncc1-c1ccc(F)c(COc2ccc3c(c2)C[C@H]2[C@H](C(=O)O)[C@@H]32)c1 [Example 30, (1S,1aS,6aR)-4-((2-fluoro-5-(6-(2-(3-hydroxyoxetan-3-yl)ethoxy)-4-methylpyridin-3-yl)benzyl)oxy)-1,1a,6,6a-tetrahydro-cyclopropa[a]indene-1-carboxylic acid]
179	51.5	Cc1nc(OCCCS(C)(=O)=O)ccc1-c1ccc(F)c(COc2ccc3c(c2)C[C@H]2[C@H](C(=O)O)[C@@H]32)c1F [Example 20, 4-(2,6-Difluoro-3-[6-(3-methanesulfonyl-propoxy)-2-methyl-pyridin-3-yl]-benzyloxy)-1,1a,6,6a-tetrahydro-cyclopropa[a]indene-1-carboxylic acid]
77.8	1390	Cc1nc(OC2CCS(=O)(=O)CC2)ccc1-c1ccc(F)c(C(C)Oc2ccc3c(c2)C[C@H]2[C@H](C(=O)O)[C@@H]32)c1 (stereo partly drawn) [Example 35, (1S,1aS,6aR)-4-(1-(5-(6-((1,1-dioxidotetrahydro-2H-thiopyran-4-yl)oxy)-2-methyl-pyridin-3-yl)-2-fluorophenyl)ethoxy)-1,1a,6,6a-tetrahydrocyclo-propa[a]indene-1-carboxylic acid]
29.4	853	Cc1nc(N2CCC(c3ccccc3)CC2)nc(C)c1-c1ccc(F)c(COc2ccc3c(c2)C[C@H]2[C@H](C(=O)O)[C@@H]32)c1F [Example 45, (1S,1aS,6aR)-4-((3-(4,6-dimethyl-2-(4-phenylpiperidin-1-yl)pyrimidin-5-yl)-2,6-difluorobenzyl)oxy)-1,1a,6,6a-tetrahydrocyclopropa[a]indene-1-carboxylic acid]
23.2	221	Cc1nc(N2CCC(C#N)(c3ccccc3)CC2)nc(C)c1-c1ccc(F)c(COc2ccc3c(c2)C[C@H]2[C@H](C(=O)O)[C@@H]32)c1 [Example 44, (1S,1aS,6aR)-4-((5-(2-(4-cyano-4-phenylpiperidin-1-yl)-4,6-dimethylpyrimidin-5-yl)-2-fluorobenzyl)oxy)-1,1a,6,6a-tetrahydrocyclopropa[a]indene-1-carboxylic acid]
75.5	13	Cc1nc(N2CCC(C)(O)CC2)ccc1-c1ccc(F)c(COc2ccc3c(c2)C[C@H]2[C@H](C(=O)O)[C@@H]32)c1 [Example 43, (1S,1aS,6aR)-4-((2-fluoro-5-(6-(4-hydroxy-4-methylpiperidin-1-yl)-2-methylpyridin-3-yl)benzyl)oxy)-1,1a,6,6a-tetrahydrocyclopropa[a]indene-1-carboxylic acid]
38.7	629	Cc1nc(N2CCC(C#N)(c3ccccc3)CC2)nc(C)c1-c1ccc(F)c(COc2ccc3c(c2)C[C@H]2[C@H](C(=O)O)[C@@H]32)c1F [Example 46, (1S,1aS,6aR)-4-((3-(2-(4-cyano-4-phenylpiperidin-1-yl)-4,6-dimethylpyrimidin-5-yl)-2,6-difluorobenzyl)oxy)-1,1a,6,6a-tetrahydrocyclopropa[a]indene-1-carboxylic acid]
70.2	18.5	Cc1nc(OC2CCS(=O)(=O)CC2)ccc1-c1ccc(F)c(COc2ccc3c(c2)C[C@H]2[C@H](C(=O)O)[C@@H]32)c1 [Example 2, (1S,1aS,6aR)-4-[(5-{6-[(1,1-dioxidotetrahydro-2H-thiopyran-4-yl)oxy]-2-methylpyridin-3-yl)-2-fluorobenzyl]oxy}-1,1a,6,6a-tetrahydrocyclopropa[a]indene-1-carboxylic acid]
28.9	19.5	Cc1nc(OC2CCN(S(C)(=O)=O)CC2)ccc1-c1ccc(F)c(COc2ccc3c(c2)C[C@H]2[C@H](C(=O)O)[C@@H]32)c1 [Example 49, (1S,1aS,6aR)-4-((2-fluoro-5-(2-methyl-6-((1-(methylsulfonyl)piperidin-4-yl)oxy)pyridin-3-yl)benzyl)oxy)-1,1a,6,6a-tetrahydrocyclopropa[a]indene-1-carboxylic acid]
